System: Jurkat T cells
Experiment: mRNA sequencing of activated Jurkat T cells
Format: cell-based, human
Settings: Jurkat T cells, P + I

PEITVTPPTP [CABIN1-L-1-2]
ABTB2 FPKM: 6.382 FPKM | ACAP1 FPKM: 26.535 FPKM | ACSF3 FPKM: 15.621 FPKM | ADA FPKM: 73.254 FPKM | ADAMTS17 FPKM: 0.882 FPKM | ADCYAP1 FPKM: 3.219 FPKM | ADORA2A FPKM: 1.475 FPKM | AFF2 FPKM: 3.175 FPKM | AGK FPKM: 14.306 FPKM | ALDH1A2 FPKM: 6.66 FPKM | ALOX5AP FPKM: 39.735 FPKM | ANKEF1 FPKM: 2.575 FPKM | ANO8 FPKM: 2.721 FPKM | ANTXR2 FPKM: 55.18 FPKM | APH1B FPKM: 4.206 FPKM | APOBEC3B-AS1 FPKM: 20.386 FPKM | APOBEC3F FPKM: 7.066 FPKM | APOBEC3G FPKM: 9.231 FPKM | APOL1 FPKM: 4.498 FPKM | ARHGAP4 FPKM: 16.216 FPKM | ARHGAP25 FPKM: 2.157 FPKM | ARHGAP31 FPKM: 11.177 FPKM | ARHGEF3 FPKM: 8.674 FPKM | ARPP21 FPKM: 0.7 FPKM | ASB13 FPKM: 2.543 FPKM | ASNS FPKM: 19.026 FPKM | ATHL1 FPKM: 6.014 FPKM | ATP2A3 FPKM: 36.996 FPKM | ATP6V0A4 FPKM: 18.558 FPKM | ATP6V1B2 FPKM: 60.661 FPKM | ATPAF1 FPKM: 10.283 FPKM | AVPR2 FPKM: 1.492 FPKM | B2M FPKM: 1302.512 FPKM | BAHCC1 FPKM: 0.873 FPKM | BCL2A1 FPKM: 51.928 FPKM | BCL2L1 FPKM: 41.852 FPKM | BCL3 FPKM: 17.15 FPKM | BCL6 FPKM: 15.55 FPKM | BCL7A FPKM: 12.277 FPKM | BCL11B FPKM: 3.353 FPKM | BEND6 FPKM: 1.409 FPKM | BIN1 FPKM: 1.968 FPKM | BIRC3 FPKM: 58.303 FPKM | C10orf55 FPKM: 15.779 FPKM | C11orf74 FPKM: 0.392 FPKM | C21orf58 FPKM: 6.073 FPKM | CABP1 FPKM: 1.689 FPKM | CAMK2D FPKM: 6.138 FPKM | CARHSP1 FPKM: 14.562 FPKM | CBFA2T3 FPKM: 11.821 FPKM | CBLB FPKM: 7.757 FPKM | CBS FPKM: 3.916 FPKM | CBX2 FPKM: 2.454 FPKM | CCDC15 FPKM: 2.926 FPKM | CCL3 FPKM: 0.502 FPKM | CCL3L3 FPKM: 0.079 FPKM | CCL20 FPKM: 1.279 FPKM | CCND3 FPKM: 25.396 FPKM | CCNE2 FPKM: 5.206 FPKM | CD1B FPKM: 4.733 FPKM | CD1E FPKM: 3.521 FPKM | CD70 FPKM: 7.606 FPKM | CD82 FPKM: 222.109 FPKM | CD97 FPKM: 21.496 FPKM | CD200 FPKM: 0.094 FPKM | CD274 FPKM: 15.92 FPKM | CDKN1A FPKM: 62.513 FPKM | CDKN2D FPKM: 16.801 FPKM | CECR1 FPKM: 3.984 FPKM | CENPM FPKM: 14.415 FPKM | CEP70 FPKM: 12.745 FPKM | CERKL FPKM: 10.348 FPKM | CFLAR FPKM: 3.022 FPKM | CHEK2 FPKM: 7.751 FPKM | CHPF2 FPKM: 34.939 FPKM | CHPF FPKM: 12.714 FPKM | CHRNA3 FPKM: 3.499 FPKM | CHST12 FPKM: 12.639 FPKM | CNN2 FPKM: 18.455 FPKM | COL27A1 FPKM: 5.729 FPKM | CPD FPKM: 26.602 FPKM | CREB3L2 FPKM: 5.857 FPKM | CREB5 FPKM: 1.966 FPKM | CSF1 FPKM: 2.594 FPKM | CSF2 FPKM: 0.314 FPKM | CXCL8 FPKM: 3.327 FPKM | CXCL11 FPKM: 3.793 FPKM | CXCR4 FPKM: 34.014 FPKM | CYTH1 FPKM: 30.15 FPKM | DBP FPKM: 1.773 FPKM | DCBLD2 FPKM: 15.588 FPKM | DENND5A FPKM: 37.896 FPKM | DNAJB5 FPKM: 19.35 FPKM | DSTYK FPKM: 3.595 FPKM | DTL FPKM: 5.275 FPKM | DTX1 FPKM: 3.245 FPKM | DUSP6 FPKM: 12.914 FPKM | DUSP10 FPKM: 12.142 FPKM | E2F7 FPKM: 4.018 FPKM | ECE1 FPKM: 59.384 FPKM | EFHD2 FPKM: 234.38 FPKM | EGR1 FPKM: 123.294 FPKM | EGR2 FPKM: 9 FPKM | EHBP1L1 FPKM: 5.023 FPKM | EMP1 FPKM: 4.589 FPKM | ETS1 FPKM: 38.627 FPKM | FADS2 FPKM: 48.612 FPKM | FAM64A FPKM: 6.008 FPKM | FAT1 FPKM: 11.964 FPKM | FBLN2 FPKM: 3.01 FPKM | FKBP5 FPKM: 7.791 FPKM | FLI1 FPKM: 10.752 FPKM | FOSL1 FPKM: 12.705 FPKM | FOSL2 FPKM: 2.362 FPKM | FXYD5 FPKM: 42.856 FPKM | FYN FPKM: 15.512 FPKM | GAD1 FPKM: 2.238 FPKM | GFOD1 FPKM: 6.312 FPKM | GFRA1 FPKM: 0.76 FPKM | GKAP1 FPKM: 2.927 FPKM | GLRB FPKM: 1.354 FPKM | GLRX FPKM: 21.013 FPKM | GNG4 FPKM: 7.415 FPKM | GPC2 FPKM: 4.85 FPKM | GPR17 FPKM: 0.181 FPKM | GPR68 FPKM: 11.224 FPKM | GSE1 FPKM: 14.556 FPKM | GTDC1 FPKM: 5.144 FPKM | GXYLT2 FPKM: 4.24 FPKM | GZMB FPKM: 909.046 FPKM | HCAR1 FPKM: 7.943 FPKM | HIVEP3 FPKM: 20.545 FPKM | HLA-A FPKM: 226.558 FPKM | HLA-B FPKM: 160.359 FPKM | HPGD FPKM: 3.392 FPKM | IFIT3 FPKM: 6.682 FPKM | IKZF2 FPKM: 8.132 FPKM | IL2 FPKM: 12.964 FPKM | IL4R FPKM: 12.536 FPKM | IL10RA FPKM: 3.208 FPKM | IL15 FPKM: 3.16 FPKM | IL15RA FPKM: 7.481 FPKM | IL21R FPKM: 5.255 FPKM | IL21R-AS1 FPKM: 3.991 FPKM | IL27RA FPKM: 10.764 FPKM | IQCJ-SCHIP1 FPKM: 1.234 FPKM | IQGAP2 FPKM: 3.477 FPKM | IRF1 FPKM: 152.425 FPKM | IRF2 FPKM: 34.829 FPKM | IRF4 FPKM: 2.092 FPKM | IRF7 FPKM: 21.372 FPKM | ITGA4 FPKM: 31.73 FPKM | ITGAL FPKM: 7.674 FPKM | ITK FPKM: 62.324 FPKM | JAK2 FPKM: 8.45 FPKM | KCNK1 FPKM: 13.139 FPKM | KIAA0101 FPKM: 16.766 FPKM | KIAA0247 FPKM: 8.83 FPKM | KIR3DX1 FPKM: 3.992 FPKM | KLF10 FPKM: 15.364 FPKM | KLF12 FPKM: 4.377 FPKM | KREMEN1 FPKM: 2.958 FPKM | LAIR1 FPKM: 7.19 FPKM | LDLRAD4 FPKM: 4.769 FPKM | LEF1-AS1 FPKM: 2.388 FPKM | LEF1 FPKM: 48.109 FPKM | LGMN FPKM: 1.976 FPKM | LIF FPKM: 0.231 FPKM | LIMS2 FPKM: 4.304 FPKM | LINC00659 FPKM: 9.828 FPKM | LINC01260 FPKM: 7.215 FPKM | LMNA FPKM: 2.786 FPKM | LMO1 FPKM: 0.954 FPKM | LOC653712 FPKM: 2.808 FPKM | LOC100506688 FPKM: 1.704 FPKM | LOC101926963 FPKM: 4.742 FPKM | LOC101927497 FPKM: 10.444 FPKM | LPAR6 FPKM: 4.344 FPKM | LRRC8C FPKM: 11.753 FPKM | LRRC20 FPKM: 2.839 FPKM | LTBP4 FPKM: 9.568 FPKM | LUCATI FPKM: 9.183 FPKM | MAFF FPKM: 16.464 FPKM | MAGEA4 FPKM: 3.775 FPKM | MAL FPKM: 2.026 FPKM | MAMLD1 FPKM: 9.949 FPKM | MAP3K7CL FPKM: 2.03 FPKM | MAST4 FPKM: 5.841 FPKM | MAZ FPKM: 99.474 FPKM | MCM2 FPKM: 23.634 FPKM | MCTP2 FPKM: 3.187 FPKM | METRN FPKM: 1.604 FPKM | MFAP4 FPKM: 0.663 FPKM | MGAT4A FPKM: 8.882 FPKM | MICAL2 FPKM: 1.84 FPKM | MIR22HG FPKM: 8.63 FPKM | MIR3652 FPKM: 567.901 FPKM | MIR6775 FPKM: 21.57 FPKM | MIR6821 FPKM: 25.116 FPKM

Source: patent publication US20240376163A1, “PEPTIDE FOR INHIBITING CALCINEURIN AND USE THEREOF” (Seoul National University R&DB Foundation, priority 2023, published 2024)
